Laboratory results from patent US11007274B2, “Compounds for medicinal applications” (Ausvir Therapeutics Pty LTD, priority 2015, dated 2021).
Read-outs that look alike come from different tables or passages of the source. Marks after values point to notes of the source that are not given here.

Columns and labels:
[1] = tested on: Oseltamivir resistant strains; test: microbe, parasite or virus in culture; format: cell-based, influenza virus
influenza virus = format: cell-based

Row | Structure (SMILES) | IC50 ([1]; Influenza A virus, H3N2, read-out: IC50, inhibition of plaque number) [ng/mL] | IC50, inhibition of plaque number ([1]; pH 1) | IC50 ([1]; unidentified influenza virus, pH 1, read-out: IC50, inhibition of plaque number) [ng/mL] | IC50 ([1]; unidentified influenza virus, read-out: IC50, inhibition of plaque number) [ng/mL] | EC50 (influenza virus) | EC50 (influenza virus; read-out: EC50) [pM] | IC50 ([1]; Influenza A virus, H3N2; read-out: IC50, inhibition of plaque number) [µM] | IC50 ([1]; pH 1; read-out: IC50, inhibition of plaque number) [µM] | IC50 ([1]; read-out: IC50, inhibition of plaque number) [µM] | IC50 ([1]; unidentified influenza virus, pH 1; read-out: IC50, inhibition of plaque number) [µM] | IC50 ([1]; unidentified influenza virus; read-out: IC50, inhibition of plaque number) [µM]
1 | CC(=O)N[C@H]1[C@H]([C@H](OC(=O)NCCCCCCCCCNC(=O)c2cc(C(=O)NCCCCCCCCCNC(=O)O[C@@H]([C@@H]3OC(C(=O)O)=C[C@H](NC(=N)N)[C@H]3NC(C)=O)[C@H](O)CO)c(C(=O)N[C@H](CC(=O)NCS(=O)(=O)O)C(=O)NCS(=O)(=O)O)cc2C(=O)N[C@H](CC(=O)NCS(=O)(=O)O)C(=O)NCS(=O)(=O)O)[C@H](O)CO)OC(C(=O)O)=C[C@@H]1NC(=N)N [MD185, PK2PYR(Zn)2[(D-Asp)(NHCH2SO3)2]2] | 1 | 1-100^b ng/ml | 1 to 10 | 1 to 10 | 0.18/0.097 ng/ml | 97 | – | – | – | – | –
2 | CCOC(=O)C1=C[C@@H](OC(CC)CC)[C@H](NC(C)=O)[C@@H](N)C1 [Oseltamivir, reference compound] | – | – | – | – | – | – | ≥ 1 | ≥ 10 | ≥ 10 | 0.1 | 1
